Measured values reported in patent publication EP0813412B1, “GEL FOR THE LOCAL HORMONOTHERAPY OF VAGINAL DRYNESS” (priority 1995, dated 1997).

Legend:
[1] = test system: récepteurs à haute affinité pour l'estradiol au niveau de l'épithélium vaginal; conditions: estrogen receptors; cited from earlier work
[2] = type: in vivo, femme
Protocol: Une première solution consiste à réduire la teneur en principe actif, typiquement à des doses de 5 µg ou même 2,5 µg par application unitaire.

[3] = Clinical trial, repeated vaginal application for 13 days: clinical and biological tolerance; type: in vivo, femme; conditions: 10 µg vaginal, repeated for 13 days
From the text: Ces événements d'intensité mineure n'ont pas empêché la poursuite de l'étude. La tolérance biologique a été excellente. Aucune anomalie ayant une signification clinique n'a été rapportée.

[4] = 10 µg, free micronised form in gel, single dose

Row | Compound | activity profile (agonist / antagonist) [1] | surface sous la courbe ([2]; 10 µg vaginal gel, steady state) | pic plasmatique d'estradiol ([2]; 10 µg vaginal gel, steady state compared with first application) | concentration plasmatique maximale du pic [2, 4] | time of the plasma peak (pic plasmatique) [2, 4] | tolérance biologique [3] | tolérance clinique ([3]; sixteen subjects, free micronised form in gel) | effets indésirables (céphalées, épisodes de vomissements et bouffées de chaleur) ([3]; sixteen subjects, minor intensity)
1 | C[C@]12CC[C@@H]3c4ccc(O)cc4CC[C@H]3[C@@H]1C[C@@H](O)[C@@H]2O [estriol] | agoniste partiel, voire d'antagoniste | – | – | – | – | – | – | –
2 | C[C@]12CC[C@@H]3c4ccc(O)cc4CC[C@H]3[C@@H]1CC[C@@H]2O [17β-estradiol] | – | comparable à celle obtenue après la première application | tend à être plus faible et retardé | du même ordre que le taux physiologique moyen observés la première semaine de la phase folliculaire chez la femme fertile | une heure environ | excellente | excellente pour treize sujets sur seize | Trois sujets ont signalé des effets indésirables
